# Laboratory results as given in patent publication US6995178B2, “Insecticidal anthranilamides” (E. I. du Pont de Nemours and Company, priority 2000, dated 2006).
smiles,measurement,value
"Cc1cccc(C(=O)NC(C)C)c1NC(=O)c1cnc(C(F)(F)F)nc1C [Example 5, 4-Methyl-N-[2-methyl-6-[[(1-methylethyl)amino]carbonyl]phenyl]-2-(trifluoromethyl)-5-pyrimidinecarboxamide]",melting point,216 to 217 °C
